Results reported in ChEMBL document CHEMBL1155531, “Structure guided design of 5-arylindazole glucocorticoid receptor agonists and antagonists” (J Med Chem, 2010).

Legend:
Glucocorticoid receptor [1] = target: T1, Glucocorticoid receptor (Homo sapiens, UniProt P04150); experiment: Displacement of fluorescent-labeled Dexamethasone from GR by fluorescent polarization assay
T1 sequence (P04150 whole entry): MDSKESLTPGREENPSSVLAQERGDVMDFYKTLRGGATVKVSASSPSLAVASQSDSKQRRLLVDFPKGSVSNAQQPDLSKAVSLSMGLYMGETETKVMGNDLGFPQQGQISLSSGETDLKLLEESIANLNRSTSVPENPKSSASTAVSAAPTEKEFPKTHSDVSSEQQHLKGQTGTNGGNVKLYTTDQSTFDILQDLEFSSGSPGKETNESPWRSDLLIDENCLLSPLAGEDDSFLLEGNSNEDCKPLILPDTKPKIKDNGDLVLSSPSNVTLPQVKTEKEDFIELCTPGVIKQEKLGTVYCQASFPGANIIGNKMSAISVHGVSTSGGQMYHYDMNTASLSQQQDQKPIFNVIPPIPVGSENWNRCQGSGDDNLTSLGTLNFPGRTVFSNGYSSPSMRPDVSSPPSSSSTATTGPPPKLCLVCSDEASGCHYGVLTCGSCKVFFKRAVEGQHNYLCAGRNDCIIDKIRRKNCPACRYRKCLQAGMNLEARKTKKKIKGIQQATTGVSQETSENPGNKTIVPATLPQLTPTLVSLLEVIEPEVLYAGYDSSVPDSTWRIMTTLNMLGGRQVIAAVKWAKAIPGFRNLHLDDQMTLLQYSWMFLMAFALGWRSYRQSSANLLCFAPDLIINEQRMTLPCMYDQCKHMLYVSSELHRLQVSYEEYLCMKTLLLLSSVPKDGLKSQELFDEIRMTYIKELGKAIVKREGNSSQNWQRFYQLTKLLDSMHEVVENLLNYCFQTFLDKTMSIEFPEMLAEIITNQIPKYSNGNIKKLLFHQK

Glucocorticoid receptor [2] = target: T1, Glucocorticoid receptor; experiment: Activity at GR in human A549 cells by NF-kappaB transrepression assay; assay type: cell-based
Progesterone receptor = target: T2, Progesterone receptor (Homo sapiens, UniProt P06401); experiment: Binding affinity to PR
T2 sequence (P06401 whole entry): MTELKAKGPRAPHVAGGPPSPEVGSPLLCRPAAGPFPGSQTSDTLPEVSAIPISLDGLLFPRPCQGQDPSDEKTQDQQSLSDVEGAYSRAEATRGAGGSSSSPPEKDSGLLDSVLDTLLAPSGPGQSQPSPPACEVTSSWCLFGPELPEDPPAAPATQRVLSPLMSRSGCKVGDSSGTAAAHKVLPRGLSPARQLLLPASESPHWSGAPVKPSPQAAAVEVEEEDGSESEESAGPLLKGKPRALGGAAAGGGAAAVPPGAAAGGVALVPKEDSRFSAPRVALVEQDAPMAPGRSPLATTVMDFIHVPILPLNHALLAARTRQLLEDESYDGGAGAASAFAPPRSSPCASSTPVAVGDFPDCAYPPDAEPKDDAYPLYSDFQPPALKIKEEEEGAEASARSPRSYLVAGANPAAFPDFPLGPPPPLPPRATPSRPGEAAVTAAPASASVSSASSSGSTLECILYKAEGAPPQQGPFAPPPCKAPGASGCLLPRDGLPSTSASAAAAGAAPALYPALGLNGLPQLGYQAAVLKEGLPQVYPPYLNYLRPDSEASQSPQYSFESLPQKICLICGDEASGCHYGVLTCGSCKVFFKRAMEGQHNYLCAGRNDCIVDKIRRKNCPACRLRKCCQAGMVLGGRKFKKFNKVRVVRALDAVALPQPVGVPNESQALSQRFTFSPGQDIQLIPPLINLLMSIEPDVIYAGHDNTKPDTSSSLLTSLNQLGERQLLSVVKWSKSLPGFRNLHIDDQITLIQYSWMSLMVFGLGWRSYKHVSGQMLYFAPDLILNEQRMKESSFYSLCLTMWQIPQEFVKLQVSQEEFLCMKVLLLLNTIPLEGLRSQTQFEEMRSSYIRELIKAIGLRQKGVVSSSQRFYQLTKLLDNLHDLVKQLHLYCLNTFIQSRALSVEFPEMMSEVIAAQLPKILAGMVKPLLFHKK

Glucocorticoid receptor [3] = target: T1, Glucocorticoid receptor; experiment: Agonist activity at GR in human A549 cells transfected with luciferase gene linked to MMTV promoter assessed as luciferase transactivation activity after 24 hrs; assay type: functional, cell-based
Androgen receptor = target: T3, Androgen receptor (Homo sapiens, UniProt P10275)
T3 sequence (P10275 whole entry): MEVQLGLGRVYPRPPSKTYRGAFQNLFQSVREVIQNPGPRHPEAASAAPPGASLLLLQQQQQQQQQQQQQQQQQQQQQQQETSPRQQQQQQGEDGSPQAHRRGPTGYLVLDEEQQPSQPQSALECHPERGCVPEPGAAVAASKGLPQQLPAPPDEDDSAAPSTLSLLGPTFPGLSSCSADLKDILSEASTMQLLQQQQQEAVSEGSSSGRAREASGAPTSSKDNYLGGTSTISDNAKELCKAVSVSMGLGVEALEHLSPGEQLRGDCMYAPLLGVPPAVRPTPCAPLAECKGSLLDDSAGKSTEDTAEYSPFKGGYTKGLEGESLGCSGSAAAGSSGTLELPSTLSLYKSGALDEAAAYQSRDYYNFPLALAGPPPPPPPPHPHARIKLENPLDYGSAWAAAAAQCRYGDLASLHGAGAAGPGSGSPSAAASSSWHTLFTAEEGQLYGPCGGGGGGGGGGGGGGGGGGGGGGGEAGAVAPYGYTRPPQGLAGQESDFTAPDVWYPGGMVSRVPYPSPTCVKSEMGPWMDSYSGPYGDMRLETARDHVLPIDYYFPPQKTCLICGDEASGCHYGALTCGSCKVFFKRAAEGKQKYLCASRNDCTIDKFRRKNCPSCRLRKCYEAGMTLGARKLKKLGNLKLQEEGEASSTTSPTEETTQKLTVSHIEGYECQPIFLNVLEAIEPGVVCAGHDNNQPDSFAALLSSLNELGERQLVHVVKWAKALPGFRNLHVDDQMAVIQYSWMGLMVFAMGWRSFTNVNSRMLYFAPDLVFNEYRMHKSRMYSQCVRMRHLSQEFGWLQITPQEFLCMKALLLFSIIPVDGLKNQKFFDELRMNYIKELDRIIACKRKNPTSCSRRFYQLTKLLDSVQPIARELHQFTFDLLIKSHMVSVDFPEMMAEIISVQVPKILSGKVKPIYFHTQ

Glucocorticoid receptor [4] = target: T1, Glucocorticoid receptor; experiment: Antagonist activity at GR in human A549 cells transfected with luciferase gene linked to MMTV promoter assessed as inhibition of dexamethasone-induced luciferase transactivation activity after 24 hrs; assay type: functional, cell-based

SMILES | IC50 (Glucocorticoid receptor [1]) [µM] | IC50 (Glucocorticoid receptor [2]) [µM] | IC50 (Progesterone receptor) [µM] | IC50 (Androgen receptor) [µM] | IC50 (Glucocorticoid receptor [4]) [µM] | EC50 (Glucocorticoid receptor [3]) [µM]
O=S(=O)(Nc1ccc(-c2ccc3c(cnn3-c3ccc(F)cc3)c2)c(C(F)(F)F)c1)c1ccsc1 | 0.0126 | 0.1 | > 10 | 2.51 | – | 0.251
CC(C)NS(=O)(=O)c1ccc(-c2ccc3c(cnn3-c3ccc(F)cc3)c2)c(C(F)(F)F)c1 | 0.0126 | > 10 | 3.16 | > 10 | 1.26 | –
Fc1ccc(-n2ncc3cc(-c4ccccc4)ccc32)cc1 | 3.16 | > 10 | > 10 | > 10 | – | –
CN(c1ccccc1)S(=O)(=O)c1ccc(-c2ccc3c(cnn3-c3ccc(F)cc3)c2)c(C(F)(F)F)c1 | 0.0126 | 0.398 | 0.794 | > 10 | – | 0.631
Oc1cccc(-c2ccc3c(cnn3-c3ccc(F)cc3)c2)c1 | 0.794 | > 10 | 2.51 | > 10 | – | –
CCOc1cccc(-c2ccc3c(cnn3-c3ccc(F)cc3)c2)c1 | 2.51 | > 10 | > 10 | > 10 | – | –
Oc1ccc(-c2ccc3c(cnn3-c3ccc(F)cc3)c2)cc1 | 0.631 | > 10 | > 10 | > 10 | – | –
CS(=O)(=O)Nc1ccc(-c2ccc3c(cnn3-c3ccc(F)cc3)c2)c(C(F)(F)F)c1 | 0.01 | > 10 | > 10 | 5.01 | 1.58 | –
Fc1ccc(-n2ncc3cc(-c4ccccc4C(F)(F)F)ccc32)cc1 | 0.251 | > 10 | 2.51 | > 10 | – | –
Fc1ccc(-n2ncc3cc(-c4cccc(C(F)(F)F)c4)ccc32)cc1 | 3.16 | > 10 | 1.58 | > 10 | – | –
CCCS(=O)(=O)Nc1ccc(-c2ccc3c(cnn3-c3ccc(F)cc3)c2)c(C(F)(F)F)c1 | 0.0158 | > 10 | > 10 | 3.16 | 2 | –
CC(C)c1cc(C(C)C)c(S(=O)(=O)Nc2ccc(-c3ccc4c(cnn4-c4ccc(F)cc4)c3)c(C(F)(F)F)c2)c(C(C)C)c1 | 0.251 | > 10 | > 10 | > 10 | > 10 | –
Cc1ccc(-c2ccc3c(cnn3-c3ccc(F)cc3)c2)cc1 | > 10 | > 10 | > 10 | > 10 | – | –
CCOc1ccccc1-c1ccc2c(cnn2-c2ccc(F)cc2)c1 | 0.501 | > 10 | > 10 | > 10 | – | –
CC(C)CNS(=O)(=O)c1ccc(-c2ccc3c(cnn3-c3ccc(F)cc3)c2)c(C(F)(F)F)c1 | 0.0398 | > 10 | 0.631 | 6.31 | 3.16 | –
Cc1cccc(-c2ccc3c(cnn3-c3ccc(F)cc3)c2)c1 | 3.16 | > 10 | > 10 | > 10 | – | –
CCNS(=O)(=O)c1ccc(-c2ccc3c(cnn3-c3ccc(F)cc3)c2)c(C(F)(F)F)c1 | 0.02 | > 10 | 1.58 | 3.16 | 2 | –
Fc1ccc(-n2ncc3cc(-c4ccc(C(F)(F)F)cc4)ccc32)cc1 | > 10 | > 10 | > 10 | > 10 | – | –

Continued, in another order:

IC50 (Glucocorticoid receptor [1]) [µM] | IC50 (Glucocorticoid receptor [2]) [µM] | IC50 (Progesterone receptor) [µM] | IC50 (Androgen receptor) [µM] | IC50 (Glucocorticoid receptor [4]) [µM] | SMILES | EC50 (Glucocorticoid receptor [3]) [µM]
0.0251 | > 10 | > 10 | > 10 | 3.16 | O=S(=O)(Nc1ccccc1)c1ccc(-c2ccc3c(cnn3-c3ccc(F)cc3)c2)c(C(F)(F)F)c1 | –
0.0126 | 0.0501 | > 10 | > 10 | – | CC(C)S(=O)(=O)Nc1ccc(-c2ccc3c(cnn3-c3ccc(F)cc3)c2)c(C(F)(F)F)c1 | 0.158
0.0158 | > 10 | > 10 | 6.31 | 1.58 | O=S(=O)(Nc1ccc(-c2ccc3c(cnn3-c3ccc(F)cc3)c2)c(C(F)(F)F)c1)c1ccccc1 | –
0.0501 | > 10 | > 2.51 | > 10 | 10 | CC(C)(C)c1ccc(S(=O)(=O)Nc2ccc(-c3ccc4c(cnn4-c4ccc(F)cc4)c3)c(C(F)(F)F)c2)cc1 | –
0.0158 | 0.0794 | > 10 | 3.16 | – | COc1cccc(S(=O)(=O)Nc2ccc(-c3ccc4c(cnn4-c4ccc(F)cc4)c3)c(C(F)(F)F)c2)c1 | 0.251
0.0316 | > 10 | 0.794 | 6.31 | 3.16 | CCCNS(=O)(=O)c1ccc(-c2ccc3c(cnn3-c3ccc(F)cc3)c2)c(C(F)(F)F)c1 | –
0.01 | > 10 | > 10 | 5.01 | 2 | CCS(=O)(=O)Nc1ccc(-c2ccc3c(cnn3-c3ccc(F)cc3)c2)c(C(F)(F)F)c1 | –
0.0158 | > 10 | 5.01 | 10 | 2 | O=S(=O)(NCCO)c1ccc(-c2ccc3c(cnn3-c3ccc(F)cc3)c2)c(C(F)(F)F)c1 | –
0.398 | > 10 | > 10 | > 10 | – | N#Cc1ccccc1-c1ccc2c(cnn2-c2ccc(F)cc2)c1 | –
> 2.51 | > 10 | > 10 | > 10 | – | N#Cc1cccc(-c2ccc3c(cnn3-c3ccc(F)cc3)c2)c1 | –
> 10 | > 10 | 2 | > 10 | – | N#Cc1ccc(-c2ccc3c(cnn3-c3ccc(F)cc3)c2)cc1 | –
1.26 | > 10 | 6.31 | > 10 | – | Cc1ccccc1-c1ccc2c(cnn2-c2ccc(F)cc2)c1 | –
